From patent US6737383B1, “Herbicidal oxadiazolidines” (priority 1999, dated 2004)

Legend:
rape = assay: Test B pre/postemergence rape; format: in vivo, Brassica napus
Summary of the method: (§1)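 Herbicidal effect was estimated by eye on a ten-point control scale after plants spent twelve to sixteen days in a greenhouse following soil or foliar treatment. Foliar sprays targeted plants at one to four leaves; all doses were formulated in a non-phytotoxic solvent with surfactant.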

pigweed = assay: Test B pre/postemergence pigweed; format: in vivo, Amaranthus retroflexus
Summary of the method: as §1

sugar beet = assay: Test B pre/postemergence sugar beet; format: in vivo, Beta vulgaris; conditions: for Plant response rating, Sugarbeets: Rate 250 g/ha
Summary of the method: as §1

morningglory = assay: Test B pre/postemergence morningglory; format: in vivo, Ipomoea hederacea
Summary of the method: as §1

rice = assay: Test B flood test rice; format: in vivo, Oryza sativa
Summary of the method: (§2)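 Flood test on plants grown to the 2-leaf stage; treated plants kept in greenhouse twelve to sixteen days, then visually rated against controls on a 0 (no effect) to 10 (complete control) scale.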

blackgrass = assay: Test B pre/postemergence blackgrass; format: in vivo, Alopecurus myosuroides
Summary of the method: as §1

wheat = assay: Test B pre/postemergence wheat; format: in vivo, Triticum aestivum; conditions: for Plant response rating, Wheat: Rate 250 g/ha
Summary of the method: as §1

soybean = assay: Test B pre/postemergence soybean; format: in vivo, Glycine max
Summary of the method: as §1

purple nutsedge = assay: Test B pre/postemergence purple nutsedge; format: in vivo, Cyperus rotundus
Summary of the method: as §1

smallflower flatsedge = assay: Test B flood test smallflower flatsedge; format: in vivo, Cyperus difformis
Summary of the method: as §2

bamyardgrass = assay: Test B flood test barnyardgrass; format: in vivo, Echinochloa crus-galli
Summary of the method: as §2

giant foxtail = assay: Test B pre/postemergence giant foxtail; format: in vivo, Setaria faberii
Summary of the method: as §1

wild oat = assay: Test B pre/postemergence wild oat; format: in vivo, Avena fatua; conditions: for Plant response rating, Wild oats: Rate 250 g/ha
Summary of the method: as §1

cocklebur = assay: Test B pre/postemergence cocklebur; format: in vivo, Xanthium strumarium
Summary of the method: as §1

velvetleaf = assay: Test B pre/postemergence velvetleaf; format: in vivo, Abutilon theophrasti; conditions: for Plant response rating, Velvetleaf: Rate 250 g/ha
Summary of the method: as §1

duck salad = assay: Test B flood test duck salad; format: in vivo, Heteranthera limosa
Summary of the method: as §2

[1] = Postemergence, Rate 125 g/ha, scale of 0 to 10 where 0 is no effect and 10 is complete control
[2] = Postemergence, Rate 250 g/ha, scale 0 to 10, 0 no effect, 10 complete control
[3] = Preemergence, Rate 62 g/ha, scale 0 to 10 (0 no effect, 10 complete control)
[4] = Preemergence, Rate 125 g/ha, scale 0 to 10 (0 no effect, 10 complete control)
[5] = Preemergence, Rate 250 g/ha, scale of 0 to 10 where 0 is no effect and 10 is complete control
[6] = Preemergence, Rate 500 g/ha, scale 0 to 10 (0 no effect, 10 complete control)
[7] = Rate 62 g/ha, Postemergence, scale of 0 to 10 where 0 is no effect and 10 is complete control
[8] = Rate 500 g/ha, Postemergence, scale 0 to 10, 0 no effect, 10 complete control
[9] = Rate 250 g/ha, Postemergence, scale 0 to 10, 0 is no effect, 10 is complete control
[10] = Preemergence, Rate 125 g/ha, 0 is no effect, 10 is complete control
[11] = Preemergence, scale of 0 to 10 where 0 is no effect and 10 is complete control
[12] = Postemergence, scale 0 to 10, 0 is no effect, 10 is complete control
[13] = Postemergence (flood test species), Rate 125 g/ha, scale of 0 to 10 where 0 is no effect and 10 is complete control
[14] = Rate 62 g/ha, Postemergence section, flood test species, scale of 0 to 10 where 0 is no effect and 10 is complete control
[15] = Rate 250 g/ha, Postemergence (flood test), scale 0 to 10, 0 is no effect, 10 is complete control
[16] = Rate 500 g/ha, listed under Postemergence (flood test species), scale 0 to 10, 0 no effect, 10 complete control
[17] = flood test, listed under Postemergence, Rate 250 g/ha, scale 0 to 10, 0 no effect, 10 complete control

CC(C)N(C(=O)n1oc(=O)n(Cc2ccccc2)c1=O)c1ccc(Cl)cc1 [Compound 106]
Rape plant response rating (rape; [1]): 0 | Rape plant response rating (rape; [2]): 0 | Rape plant response rating (rape; [3]): 0 | Plant response rating, Rape (rape; [4]): 0 | Plant response rating, Rape (rape; [5]): 0 | Rape plant response rating (rape; [6]): 2 | Rape plant response rating (rape; [7]): 0 | Rape plant response rating (rape; [8]): 0 | Redroot pigweed plant response rating (pigweed; [1]): 0 | Redroot pigweed plant response rating (pigweed; [3]): 0 | Plant response rating, Redroot pigweed (pigweed; [4]): 0 | Plant response rating, Redroot pigweed (pigweed; [5]): 0 | Redroot pigweed plant response rating (pigweed; [6]): 4 | Redroot pigweed plant response rating (pigweed; [7]): 0 | Plant response rating, Redroot pigweed (pigweed; [9]): 0 | Redroot pigweed plant response rating (pigweed; [8]): 6 | Sugarbeets plant response rating (sugar beet; [1]): 0 | Sugarbeets plant response rating (sugar beet; [3]): 0 | Sugarbeets plant response rating (0 to 10 scale) (sugar beet; [10]): 0 | Plant response rating, Sugarbeets (sugar beet; [11]): 0 | Sugarbeets plant response rating (sugar beet; [6]): 2 | Sugarbeets plant response rating (sugar beet; [7]): 0 | Plant response rating, Sugarbeets (sugar beet; [12]): 0 | Sugarbeets plant response rating (sugar beet; [8]): 0 | Morningglory plant response rating (morningglory; [1]): 7 | Morningglory plant response rating (morningglory; [2]): 8 | Morningglory plant response rating (morningglory; [3]): 0 | Plant response rating, Morningglory (morningglory; [4]): 0 | Plant response rating, Morningglory (morningglory; [5]): 0 | Morningglory plant response rating (morningglory; [6]): 0 | Morningglory plant response rating (morningglory; [7]): 6 | Morningglory plant response rating (morningglory; [8]): 10 | Rice plant response rating (rice; [13]): 0 | Rice plant response rating (rice; [14]): 0 | Plant response rating, Rice (rice; [15]): 0 | Rice plant response rating (rice; [16]): 0 | Blackgrass plant response rating (blackgrass; [1]): 0 | Blackgrass plant response rating (blackgrass; [2]): 1 | Blackgrass plant response rating (blackgrass; [3]): 0 | Plant response rating, Blackgrass (blackgrass; [4]): 0 | Plant response rating, Blackgrass (blackgrass; [5]): 0 | Blackgrass plant response rating (blackgrass; [6]): 2 | Blackgrass plant response rating (blackgrass; [7]): 0 | Blackgrass plant response rating (blackgrass; [8]): 3 | Wheat plant response rating (wheat; [1]): 0 | Wheat plant response rating (wheat; [3]): 0 | Wheat plant response rating (0 to 10 scale) (wheat; [10]): 0 | Plant response rating, Wheat (wheat; [11]): 0 | Wheat plant response rating (wheat; [6]): 0 | Wheat plant response rating (wheat; [7]): 0 | Plant response rating, Wheat (wheat; [12]): 0 | Wheat plant response rating (wheat; [8]): 0 | Soybean plant response rating (soybean; [1]): 0 | Soybean plant response rating (soybean; [3]): 0 | Plant response rating, Soybean (soybean; [4]): 0 | Plant response rating, Soybean (soybean; [5]): 0 | Soybean plant response rating (soybean; [6]): 0 | Soybean plant response rating (soybean; [7]): 0 | Plant response rating, Soybean (soybean; [9]): 1 | Soybean plant response rating (soybean; [8]): 1 | Nutsedge plant response rating (purple nutsedge; [1]): 0 | Nutsedge plant response rating (purple nutsedge; [2]): 0 | Nutsedge plant response rating (purple nutsedge; [3]): 0 | Plant response rating, Nutsedge (purple nutsedge; [4]): 0 | Plant response rating, Nutsedge (purple nutsedge; [5]): 0 | Nutsedge plant response rating (purple nutsedge; [6]): 0 | Nutsedge plant response rating (purple nutsedge; [7]): 0 | Nutsedge plant response rating (purple nutsedge; [8]): 0 | S. Flatsedge plant response rating (smallflower flatsedge; [13]): 0 | S. Flatsedge plant response rating (smallflower flatsedge; [14]): 0 | Plant response rating, S. Flatsedge (smallflower flatsedge; [15]): 0 | S. Flatsedge plant response rating (smallflower flatsedge; [16]): 0 | Barnyardgrass plant response rating (bamyardgrass; Postemergence, Rate 62 g/ha, scale 0 to 10, 0 is no effect, 10 is complete control): 0 | Barnyardgrass plant response rating (bamyardgrass; Rate 125 g/ha, Postemergence section (flood test species), scale 0 to 10, 0 no effect, 10 complete control): 0 | Barnyardgrass plant response rating (bamyardgrass; [16]): 0 | Barnyardgrass plant response rating (bamyardgrass; [17]): 0 | Giant foxtail plant response rating (giant foxtail; [1]): 2 | Giant foxtail plant response rating (giant foxtail; [2]): 3 | Giant foxtail plant response rating (giant foxtail; [3]): 2 | Plant response rating, Giant foxtail (giant foxtail; [4]): 5 | Plant response rating, Giant foxtail (giant foxtail; [5]): 10 | Giant foxtail plant response rating (giant foxtail; [6]): 10 | Giant foxtail plant response rating (giant foxtail; [7]): 0 | Giant foxtail plant response rating (giant foxtail; [8]): 3 | Wild oats plant response rating (wild oat; [1]): 0 | Wild oats plant response rating (wild oat; [3]): 0 | Wild oats plant response rating (0 to 10 scale) (wild oat; [10]): 0 | Plant response rating, Wild oats (wild oat; [11]): 0 | Wild oats plant response rating (wild oat; [6]): 0 | Wild oats plant response rating (wild oat; [7]): 0 | Plant response rating, Wild oats (wild oat; [12]): 0 | Wild oats plant response rating (wild oat; [8]): 0 | Cocklebur plant response rating (cocklebur; [1]): 2 | Cocklebur plant response rating (cocklebur; [2]): 2 | Cocklebur plant response rating (cocklebur; [3]): 0 | Plant response rating, Cocklebur (cocklebur; [4]): 0 | Plant response rating, Cocklebur (cocklebur; [5]): 0 | Cocklebur plant response rating (cocklebur; [6]): 0 | Cocklebur plant response rating (cocklebur; [7]): 0 | Cocklebur plant response rating (cocklebur; [8]): 4 | Velvetleaf plant response rating (velvetleaf; [1]): 0 | Velvetleaf plant response rating (velvetleaf; [3]): 0 | Velvetleaf plant response rating (0 to 10 scale) (velvetleaf; [10]): 0 | Plant response rating, Velvetleaf (velvetleaf; [11]): 0 | Velvetleaf plant response rating (velvetleaf; [6]): 0 | Velvetleaf plant response rating (velvetleaf; [7]): 0 | Plant response rating, Velvetleaf (velvetleaf; [12]): 2 | Velvetleaf plant response rating (velvetleaf; [8]): 2 | Ducksalad plant response rating (duck salad; [13]): 0 | Ducksalad plant response rating (duck salad; [14]): 0 | Ducksalad plant response rating (duck salad; [16]): 0 | Ducksalad plant response rating (duck salad; [17]): 0
